Results as given in PubChem BioAssay AID1645863 (Buhrlage Lab, Dana-Farber Cancer Institute and Novartis …, 2021).
Active and inactive are the calls of the source. How the calls were made is not given here.

Biological target: Ubiquitin carboxyl-terminal hydrolase 10 (Homo sapiens) (UniProt Q14694)
Assay: primary hit verification, biochemical, ubiquitin-specific protease 10 deubiquitylase inhibitors, concentration-effect titration (AID 1645863);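 further: potency values describe inhibition of USP10 cleavage of a fluorogenic ubiquitin substrate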
Settings: USP10 deubiquitinase enzymatic assay

Sequence of Ubiquitin carboxyl-terminal hydrolase 10 (Homo sapiens) (Q14694 whole entry, looked up): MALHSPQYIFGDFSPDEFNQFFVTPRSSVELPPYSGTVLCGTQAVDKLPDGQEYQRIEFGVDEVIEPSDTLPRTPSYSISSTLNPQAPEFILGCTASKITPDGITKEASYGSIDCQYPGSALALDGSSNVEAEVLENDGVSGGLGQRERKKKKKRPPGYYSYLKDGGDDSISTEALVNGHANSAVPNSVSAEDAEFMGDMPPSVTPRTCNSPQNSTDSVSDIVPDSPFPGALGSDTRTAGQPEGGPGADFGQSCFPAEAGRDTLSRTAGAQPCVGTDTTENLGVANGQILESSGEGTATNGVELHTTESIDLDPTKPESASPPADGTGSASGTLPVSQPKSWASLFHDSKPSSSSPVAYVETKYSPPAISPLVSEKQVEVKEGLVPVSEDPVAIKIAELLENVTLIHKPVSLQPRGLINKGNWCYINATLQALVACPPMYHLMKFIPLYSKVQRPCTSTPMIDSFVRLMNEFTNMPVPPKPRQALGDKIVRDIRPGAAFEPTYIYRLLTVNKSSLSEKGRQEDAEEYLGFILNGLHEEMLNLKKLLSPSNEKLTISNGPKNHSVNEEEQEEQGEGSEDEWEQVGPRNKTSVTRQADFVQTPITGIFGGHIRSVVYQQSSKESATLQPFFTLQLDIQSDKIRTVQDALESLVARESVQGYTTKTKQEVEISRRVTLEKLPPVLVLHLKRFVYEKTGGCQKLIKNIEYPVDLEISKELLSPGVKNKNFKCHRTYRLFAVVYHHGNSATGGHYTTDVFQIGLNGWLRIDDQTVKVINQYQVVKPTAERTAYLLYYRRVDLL

Structure (SMILES) | IC50
CCOc1ccccc1-c1cc(NC(=O)c2cc3ccc4cccnc4c3[nH]2)on1 | > 40 µM (inactive)
COc1ccc([C@H]2Oc3cc(OC)cc(O)c3C(=O)[C@@H]2[C@@H]2C(=O)c3c(O)cc(O)cc3O[C@H]2c2ccc(OC)cc2)cc1 | 18.5 µM
CCOc1ccccc1NC(=O)Cn1c(=O)n(CCCC(=O)NCc2ccc(C)cc2)c(=O)c2sccc21 | > 40 µM (inactive)
O=C(OC1CSc2nc3ccccc3n2C1)c1ccc([N+](=O)[O-])o1 (centres undefined) | 22.7 µM
COc1ccccc1CN1CCC(c2cc(=O)[nH]c(-c3cccnc3)n2)CC1 | > 40 µM (inactive)
CN1CCc2c(C#N)c(N3CCOCC3)nc(NCC3CCCO3)c2C1 (centres undefined) | > 40 µM (inactive)
O=C(COc1ccc(Cl)cc1)Nc1noc(-c2ccccc2)n1 | 32.5 µM
O=C(c1ccccn1)N1CCC2(CC1)CC1(CO2)Nc2ccccc2-n2cccc21 (centres undefined) | > 40 µM (inactive)
CCCCCCCCCCCCCCCc1cc(O)cc(O)c1C(=O)O | 19.3 µM
Cc1ccc2cc(-c3noc(CCC(=O)NC4CCCC4)n3)c(=O)[nH]c2c1 | > 40 µM (inactive)
Cc1nnc(NC(=O)C2CC(=O)N(CCc3ccc(F)cc3)C2)s1 (centres undefined) | > 40 µM (inactive)
CCc1ccc(OCCn2c(CCNC(=O)C3CCCCC3)nc3ccccc32)cc1 | > 40 µM (inactive)
COc1ccc(S(=O)(=O)N2CCc3ccccc32)cc1C(=O)Nc1ccc2c(c1)NC(=O)C(C)O2 (centres undefined) | > 40 µM (inactive)
Cc1ccc2c(c1)c(=O)c(C(=O)c1ccccc1)cn2CC(=O)Nc1ccc2c(c1)OCCO2 | > 40 µM (inactive)
O=C(CSc1nnc2n(-c3ccccc3)c(=O)c3ccccc3n12)c1ccc(F)cc1 | 12.9 µM
COc1ccc(S(=O)(=O)N2CCc3ccccc32)cc1C(=O)Nc1ccc2[nH]c(=O)[nH]c2c1 | 24.2 µM
Nc1c(C(=O)NCc2ccc3c(c2)OCO3)nnn1Cc1ccc(Br)cc1F | 18.4 µM
CC(C)=CCc1c2c(c3occ(-c4ccc(O)cc4)c(=O)c3c1O)C=CC(C)(C)O2 | > 40 µM (inactive)
CC(C)=CCc1c2c(c3occ(-c4ccc(O)c(O)c4)c(=O)c3c1O)C=CC(C)(C)O2 | 6.37 µM
CCN(CC)C(=O)c1sc(NC(=O)c2cc(-c3ccccc3Cl)nc3ccccc23)c(C(N)=O)c1C | > 40 µM (inactive)

Structure (SMILES) | IC50
COc1ccc(C)cc1NC(=O)C1CC(=O)Nc2nc3ccccc3n21 (centres undefined) | 28.1 µM
O=C(CNS(=O)(=O)c1ccc(F)cc1)N1CCCC(c2nnc3ccccn23)C1 (centres undefined) | > 40 µM (inactive)
O=C(Nc1ccccc1)Nc1ccc(F)c(-c2nnc(-c3ccccc3)o2)c1 | > 40 µM (inactive)
O=C(c1ccc2c(c1)OCO2)[C@@H]1[C@H](C(=O)OC(c2ccccc2)c2ccccc2)N2c3ccccc3C=CC2[C@@]12C(=O)Nc1ccccc12 (some centres undefined) | > 40 µM (inactive)
Cc1ccc(-n2nc(C(=O)Nc3ccc(C)cn3)c3ncn(C)c(=O)c32)cc1 | > 40 µM (inactive)
O=C(Cn1ccc2ccn(Cc3ccccc3)c2c1=O)Nc1ccccc1Cl | > 40 µM (inactive)
COc1cc(NC(=O)Cn2c(=O)n(-c3ccc(CC(=O)NC4CCCC4)cc3)c(=O)c3ccccc32)cc(OC)c1 | > 40 µM (inactive)
CCn1c(SCC(=O)Nc2ccc(C)c(Cl)c2)nnc1-c1ccc2c(c1)OCCO2 | > 40 µM (inactive)
O=C(CCCc1nnc2c(=O)n(-c3cccc(F)c3)ccn12)Nc1ccccc1 | > 40 µM (inactive)
CC1(C)Cc2c(c(-c3ccco3)nc3sc4c(SCCCc5ccccc5)ncnc4c23)CO1 | 29.1 µM
Cc1ccc(Nc2nc(Nc3cccc(F)c3)nc3nccnc23)c(C)c1 | > 40 µM (inactive)
Cc1ccc(Cl)cc1NC(=O)c1cc(-c2ccccn2)n[nH]1 | > 40 µM (inactive)
O=c1[nH]c(C2CCN(S(=O)(=O)c3ccc(S(=O)(=O)NC4CCCCC4)cc3)CC2)nc2c1nnn2Cc1ccc(F)cc1 | 21.9 µM
Cc1cc(Nc2ccc(C(=O)NCc3ccco3)cc2)n2nc(-c3cccnc3)nc2n1 | > 40 µM (inactive)
C/C(=C\Cc1c(O)cc(C)c(C=O)c1O)CC[C@@]1(C)[C@H](C)CCC(=O)[C@@H]1C | > 40 µM (inactive)
COc1ccc(OC)c(NC(=O)c2cc(Cl)ccc2OC)c1 | > 40 µM (inactive)
COc1ccc(/C=C/C(=O)Nc2cccc(S(=O)(=O)Nc3ccccc3Cl)c2)c(OC)c1 | 15 µM
O=C(Nc1cccc2ccccc12)N1CCC(c2nc3c(nnn3Cc3ccc(F)cc3)c(=O)[nH]2)CC1 | > 40 µM (inactive)
O=C(NCCc1nc2ccccc2n1Cc1ccccc1F)c1ccc(Cl)cc1 | 24.4 µM

Next, values leading:

IC50 | Structure (SMILES)
> 40 µM (inactive) | Cc1cc(CN2CCCCC2c2cc(=O)n3ccnc3[nH]2)no1 (centres undefined)
> 40 µM (inactive) | O=S1(=O)CCN(Cc2cccnc2)c2c(F)nc(N3CCOCC3)c(F)c21
> 40 µM (inactive) | O=C(Cc1ccc(-n2c(=O)c3ccccc3n(Cc3cccc(F)c3)c2=O)cc1)NC1CCCC1
12.4 µM | CC[C@@H](C(=O)[C@@H](C)[C@@H](O)[C@H](C)CCc1ccc(C)c(O)c1C(=O)O)[C@@H]1O[C@](CC)([C@H]2CC[C@](O)(CC)[C@H](C)O2)C[C@@H]1C
> 40 µM (inactive) | CC(=O)c1ccc(NC(=O)CCc2c(C)c3c(C)nn(-c4ccccc4)c3n(C)c2=O)cc1
38 µM | COc1ccc2cc(C(=O)N3CCC(C(C)C(=O)NCc4cccc(F)c4)CC3)[nH]c2c1 (centres undefined)
14.6 µM | Cc1ccc(Nc2nc(O)c(CC(=O)Nc3ccc(C)cc3C)s2)cc1
> 40 µM (inactive) | CCCCC/C=C/C=C/C(=O)OC1C(O)CC(c2ccc3c(c2O)C(=O)c2c(O)cc4cc(C)cc(O)c4c2C3=O)OC1C (centres undefined)
30.5 µM | O=C(Cn1c(=O)n(Cc2ccc3c(c2)OCO3)c(=O)c2ccccc21)NCc1ccco1
> 40 µM (inactive) | Cc1cc(Cl)ccc1NC(=O)c1cc(-c2cccnc2)n[nH]1
> 40 µM (inactive) | Cc1ccc(N2CC(C(=O)Nc3cccc(-c4noc(C)n4)c3)CC2=O)cc1 (centres undefined)
> 40 µM (inactive) | COc1cc2c(c(OC)c1OC)-c1ccc(NCCc3cccc(F)c3)c(=O)cc1[C@@H](NC(C)=O)CC2
> 40 µM (inactive) | Cc1ccc2nc(CNc3ccc(F)cc3C)cc(=O)n2c1
> 40 µM (inactive) | CCCn1cc(-c2nc(-c3ccccn3)no2)c(=O)c2ccccc21
> 40 µM (inactive) | O=C(Nc1cc(F)c2nc(N3CCOCC3)ccc2c1)C1CC1
30.5 µM | COC(=O)c1ccc(Nc2cc(C)nc3cc(C(F)(F)F)ccc23)cc1
> 40 µM (inactive) | CCc1ccc(NC(=O)Cn2c(=O)n(Cc3ccccc3)c(=O)c3nn(CC)cc32)cc1
37 µM | COc1ccc(OC)c(NC(=O)c2sc(-c3ccccc3)nc2C)c1
13.1 µM | Cc1ccc(Cl)cc1NC(=O)Cn1c(=O)n(CCC(=O)NCc2ccco2)c(=O)c2ccccc21
> 40 µM (inactive) | COc1ccc(Cn2nc(C)cc2NC(=O)c2cccc(F)c2)cc1OC
> 40 µM (inactive) | O=C(Cn1c(=O)c2cccn2c2ccccc21)NCc1ccc(F)cc1
14.3 µM | Cc1cc(C)cc(NC(=O)Nc2ccccc2OCc2cc(=O)n3c(ncn3C(C)C)n2)c1
> 40 µM (inactive) | Cc1ccc2[nH]c(=O)c(CN(CC3COCCO3)S(=O)(=O)c3ccc(F)cc3)cc2c1 (centres undefined)
> 40 µM (inactive) | COc1ccc(/C=C/C(=O)Nc2nc3n(n2)C(c2ccccc2)CC(=O)N3)cc1 (centres undefined)
15.1 µM | Cc1ccc2nc(NC(=O)/C=C/c3ccc4c(c3)OCO4)sc2c1

IC50 | Structure (SMILES)
> 40 µM (inactive) | COc1cccc(-c2cncc(C3CCN(S(=O)(=O)N(C)C)CC3)n2)c1
> 40 µM (inactive) | Cc1ccc2cc(CNc3ccccc3)c(=O)n(CC(=O)Nc3ccccc3C)c2c1
> 40 µM (inactive) | COC(=O)c1cc2c(ccn2-c2ccc(F)cc2)n1CC(=O)NC1CCCCC1
> 40 µM (inactive) | CCC(=O)Nc1nc2cc(NC(=O)Nc3cc(C)cc(C)c3)ccc2s1
> 40 µM (inactive) | COc1cc2c(oc(=O)c3cc(C)cc(OC)c32)c2c([C@@H]3OC(C)[C@@H](O)[C@@](C)(O)C3O)ccc(O)c12 (some centres undefined)
> 40 µM (inactive) | O=C(Nc1ccc(NC(=O)c2ccccc2O)cc1)Nc1ccc(OCc2ccccc2)cc1
> 40 µM (inactive) | NC(=O)C[C@H](NC(=O)[C@H](Cc1ccccc1)n1c(=O)[nH]c2ccccc2c1=O)C(=O)N[C@@H](Cc1ccccc1)C(=O)O
> 40 µM (inactive) | COc1ccccc1C(=O)N1CCC[C@H](Cn2nnc(-c3cccnc3)n2)C1
27.6 µM | O=C(CCn1c(=O)c2ccccc2n(Cc2ccc(F)cc2Cl)c1=O)NCc1ccco1
> 40 µM (inactive) | CCOc1ccc2c(c1)c(=O)c(C(=O)c1ccc(C)cc1)cn2CC(=O)Nc1ccc(C)cc1
16.3 µM | Cc1sc(NC(=O)Cn2nnc3ccccc32)nc1-c1ccc2c(c1)CCN2C(=O)c1ccccc1F
16.2 µM | O=C(Cn1c(=O)n(-c2ccccc2)c(=O)c2ccc(C(=O)NCc3ccc4c(c3)OCO4)cc21)NCCC1=CCCCC1
15.5 µM | Cc1cc(OCC(=O)Nc2ccc3c(c2)NC(=O)CO3)ccc1Cl
> 40 µM (inactive) | COc1ccc(-c2c(NC(=O)C3COc4ccccc4O3)n[nH]c2C)cc1OC (centres undefined)
19.8 µM | N#Cc1cccc(NC(=O)COC(=O)c2n[nH]c3ccccc23)c1
> 40 µM (inactive) | Cc1ccc(NC(=O)Nc2nnc(CC(=O)NCc3ccccc3)s2)c(Cl)c1
13.7 µM | COc1cc2c(cc1OC)-c1cc(Nc3ccc(Br)cc3)nc(=O)n1CC2
> 40 µM (inactive) | Cc1nnc2ccc(-c3ccc(NC(=O)c4ccc(Br)o4)cc3)nn12
> 40 µM (inactive) | Cc1ccc(CNCc2cc3c(-c4ccc(F)cc4)nn(-c4ccccc4)c3[nH]c2=O)cc1
> 40 µM (inactive) | COC(=O)c1ccc2c(=O)n(-c3ccc(C)c(F)c3)c(N3CCC(C(N)=O)CC3)nc2c1
> 40 µM (inactive) | c1cncc(-c2cnc3sc(NCc4ccc5c(c4)OCO5)nn23)c1
> 40 µM (inactive) | CSc1nc2ncn(CC(=O)Nc3ccc(Br)cc3)c(=O)c2s1
> 40 µM (inactive) | CC(=O)Nc1ccc(Cc2nc(-c3ccc4c(c3)nc(C)c(=O)n4C3CCCC3)no2)cc1
> 40 µM (inactive) | COc1cccc(NC(=O)c2cnc(N3CCCC3)nc2C)c1
> 40 µM (inactive) | COc1ccc(C(=O)Nc2ccccc2C(=O)NC(Cc2ccc(O)cc2)C(=O)NNC(=O)c2ccccc2Cl)cc1 (centres undefined)
